# Measurements reported in patent publication US20200270588A1, “GLUCOSYL TRANSFERASE POLYPEPTIDES AND METHODS OF USE” (Syngenta Participations AG, priority 2017, published 2020).
# Experiments:
# Format in all cases: biochemical
# [1] = molecular target: T1, SEQ ID NO 20, mutant of Zea mays bx9 glucosyl transferase (Zea mays, UniProt B4G072, A281K/A334K/F21Y/L194V/M279F/S117V); details: lower block, concentration printed only in upper block: V 0.300, VII 0.210; IV, VIII, XI, XXI, XX, XVIII, XVI, XV, XIV 0.200; others 1.000 mM
# T1 construct: His tag (C); made in house
# Protocol: (§1) Glucosyl transferase activity is assayed via measurement of acceptor substrate-dependent production of UDP from ultrapure UDP-glucose using the Promega UDP-Glo™ method and according to the manufacturer's instructions. Assays are run in 96 well microtiter plates.
# (§2) Enzyme, typically at a stock concentration of ˜2 mg/ml is diluted to an appropriate concentration in 50 mM K^+ Hepes buffer at pH7.5 containing 0.5 mg/mL bovine serum albumin (BSA) and 5 ul aliquots of this diluted enzyme added to each well of a Perkin Elmer white ½ area 96 well plate. […] Assays are run for an appropriate time (usually 10 to 60 min) so that the amount of UDP formed lies within the most nearly linear part of the UDP standard curve and are stopped with the addition and mixing of 25 ul UDP-Glo™ detection reagent (prepared as described below). Plates are then incubated at room temperature for 60 minutes and then read in a luminescence plate reader (Perkin Elmer Envision 2130 Multilabel Reader). A UDP standard curve is run alongside each set of assays and reagent blank control assays run with DMSO in place of test herbicide.
# (§3) The UDP-Glo™ reagents are made up and used according to the manufacturer's instructions. Thus, Nucleotide Detection Buffer and ATP are combined to make nucleotide detection reagent (NDR) dispensed into aliquots and frozen to be freshly thawed before use.
# (§4) Km and kcat values in respect of UDP-glucose are derived by carrying out experiments to measure initial rates over a suitable range of concentrations of UDP glucose out at a fixed near saturating concentration of acceptor substrate. Best fit values of kcat, Km and kcat/Km are obtained by direct fitting of the data to the Michaelis-Menten equation using Graphpad Prism™ software.
# All of these proteins were C-terminally his-tagged, expressed and purified as described in Example 1. Assays were run and analyzed as described in example 1.
# [2] = molecular target: T2, Zea mays bx9 glucosyl transferase (C-terminally his tagged SEQ ID NO: 1) (Zea mays, UniProt B4G072); assay: UDP-Glo glucosyl transferase assay, purified enzyme; details: for Activity: herbicide mM: V 0.300, VI 0.250, VII 0.210, IV, VIII, XI, XXI, XX, XVIII, XVI, XV, XIV 0.200, others 1.000
# T2 construct: His tag (C); made in house; host or cells: E. coli BL21 (DE3), pET24a
# T2 sequence (B4G072 1-462): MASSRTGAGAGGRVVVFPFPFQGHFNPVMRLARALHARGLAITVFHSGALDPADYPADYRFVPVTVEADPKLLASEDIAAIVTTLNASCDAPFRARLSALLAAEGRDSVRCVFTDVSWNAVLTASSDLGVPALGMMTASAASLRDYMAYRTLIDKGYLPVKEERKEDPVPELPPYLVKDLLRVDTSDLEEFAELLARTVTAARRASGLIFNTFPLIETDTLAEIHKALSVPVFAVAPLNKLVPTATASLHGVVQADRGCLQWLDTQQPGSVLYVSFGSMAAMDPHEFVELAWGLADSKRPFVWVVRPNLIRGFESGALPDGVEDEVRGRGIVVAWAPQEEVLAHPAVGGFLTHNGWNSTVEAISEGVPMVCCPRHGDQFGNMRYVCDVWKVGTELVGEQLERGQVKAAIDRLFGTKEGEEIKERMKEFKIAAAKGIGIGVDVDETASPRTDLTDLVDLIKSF
# Protocol: as §1
# as §2, with “herbicide. Typically, 300 pmol of UDP corresponds to a Relative Luminescence Unit (RLU) reading of about 1.5E7 and the response curve between 0 and 600 pmol is fitted to a polynomial function (see for example FIG. 2).” for “herbicide.”
# as §3, §4
# [3] = molecular target: T3, SEQ ID NO 18, mutant of Zea mays bx9 glucosyl transferase (Zea mays, UniProt B4G072, A281K/A334K/F21Y/M279F/S117V); assay: as above; details: herbicide mM: V 0.300, VI 0.250, VII 0.210; IV, VIII, XI, XXI, XX, XVIII, XVI, XV, XIV 0.200; others 1.000
# T3 construct: His tag (C); made in house
# Protocol: as §1
# as §2, with “herbicide. Typically, 300 pmol of UDP corresponds to a Relative Luminescence Unit (RLU) reading of about 1.5E7 and the response curve between 0 and 600 pmol is fitted to a polynomial function (see for example FIG. 2).” for “herbicide.”
# (§5) The UDP-Glo™ reagents are made up and used according to the manufacturer's instructions. Thus, Nucleotide Detection Buffer and ATP are combined to make nucleotide detection reagent (NDR) dispensed into aliquots and frozen to be freshly thawed before use. […]
# (§6) Table 13 summarizes the results obtained from assays, run as described in Example 1, using a variety of alcohol and aminal PSII herbicides as substrates of the Zea mays bx9 w/t (i.e. C-terminally his tagged SEQ ID no 1) and various mutants of the same, selected from SEQ ID NO: 16-30). All of these proteins were C-terminally his-tagged, expressed and purified as described in Example 1. Assays were run and analyzed as described in example 1. It is seen that various of the mutations herein and combinations thereof led to significant improvements (over the w/t bx9 protein) in catalytic activity versus various of the herbicides and that these improvements are often of sufficient magnitude to be useful for conferring improved herbicide tolerance upon crop. This is especially the case given that even the unmutated w/t bx9 enzyme which has only modest glucosyl transferase activity (for example against compounds V and VI) was nevertheless adequately active to confer significant herbicide tolerance in the glass house (as shown in example 9) even without mutational improvement. It is also seen that particular mutations can lead to very much improved activity in respect of some chemistries but not to others but that, overall, there is at least one variant within the scope of the current invention that provides significant and useful improvement in tolerance to each of the chemistries tested.
# [4] = molecular target: T4, SEQ ID NO 19, mutant of Zea mays bx9 glucosyl transferase (Zea mays, UniProt B4G072, A281K/A334K/L194V/M279F/S117V); assay: as above; details: herbicide mM: V 0.300, VI 0.250, VII 0.210; IV, VIII, XI, XXI, XX, XVIII, XVI, XV, XIV 0.200; others 1.000
# T4 construct: His tag (C); made in house
# Protocol: as §1
# as §2, with “herbicide. Typically, 300 pmol of UDP corresponds to a Relative Luminescence Unit (RLU) reading of about 1.5E7 and the response curve between 0 and 600 pmol is fitted to a polynomial function (see for example FIG. 2).” for “herbicide.”
# as §5, §6
# [5] = molecular target: T5, SEQ ID NO 23, mutant of Zea mays bx9 glucosyl transferase (Zea mays, UniProt B4G072, A334K/F21Y/L194C/M279F/S117V); assay: as above; details: lower block, concentration printed only in upper block: V 0.300, VII 0.210; IV, VIII, XI, XXI, XX, XVIII, XVI, XV, XIV 0.200; others 1.000 mM
# T5 construct: His tag (C); made in house
# Protocol: as §1
# as §2, with “herbicide. Typically, 300 pmol of UDP corresponds to a Relative Luminescence Unit (RLU) reading of about 1.5E7 and the response curve between 0 and 600 pmol is fitted to a polynomial function (see for example FIG. 2).” for “herbicide.”
# as §5, §6
# [6] = molecular target: T6, SEQ ID NO 21, mutant of Zea mays bx9 glucosyl transferase (Zea mays, UniProt B4G072, A334K/F21Y/L194V/M279F/S117V); assay: as above; details: lower block, concentration printed only in upper block: V 0.300, VII 0.210; IV, VIII, XI, XXI, XX, XVIII, XVI, XV, XIV 0.200; others 1.000 mM
# T6 construct: His tag (C); made in house
# Protocol: as §1
# as §2, with “herbicide. Typically, 300 pmol of UDP corresponds to a Relative Luminescence Unit (RLU) reading of about 1.5E7 and the response curve between 0 and 600 pmol is fitted to a polynomial function (see for example FIG. 2).” for “herbicide.”
# as §3, §4
# (§7) Variants of C-terminally his tagged SEQ ID No:1 (w/t bx9 from Zea mays), exemplified as SEQ ID 16-30, were cloned, purified and assayed as described in Example 1. FIG. 4 depicts the data from some experiments to determine the kinetic parameters of some of these variants in respect of herbicide VI and table 12 summarizes the estimates of kinetic parameters obtained from further such experiments in respect of a range of herbicides.
# as §6
# [7] = molecular target: T7, SEQ ID NO 17, zmBX9 S117V, M279F, A334K mutant (Zea mays, UniProt B4G072, A334K/M279F/S117V); assay: as above; details: for Activity: herbicide mM: V 0.300, VI 0.250, VII 0.210, IV, VIII, XI, XXI, XX, XVIII, XVI, XV, XIV 0.200, others 1.000
# T7 construct: polypeptides were the C-terminally his-tagged; His tag (C); made in house
# Protocol: as §1
# as §2, with “herbicide. Typically, 300 pmol of UDP corresponds to a Relative Luminescence Unit (RLU) reading of about 1.5E7 and the response curve between 0 and 600 pmol is fitted to a polynomial function (see for example FIG. 2).” for “herbicide.”
# as §3, §4, §7, §6
# [8] = molecular target: T8, SEQ ID NO 22, mutant of Zea mays bx9 glucosyl transferase (Zea mays, UniProt B4G072, A334K/F21Y/M279F/S117V/T220P); assay: as above; details: lower block, concentration printed only in upper block: V 0.300, VII 0.210; IV, VIII, XI, XXI, XX, XVIII, XVI, XV, XIV 0.200; others 1.000 mM
# T8 construct: His tag (C); made in house
# Protocol: as §1
# as §2, with “herbicide. Typically, 300 pmol of UDP corresponds to a Relative Luminescence Unit (RLU) reading of about 1.5E7 and the response curve between 0 and 600 pmol is fitted to a polynomial function (see for example FIG. 2).” for “herbicide.”
# as §3, §4, §7, §6
Compound,Activity [1] [pmol/sec/pmol enzyme],Activity [2] [pmol/sec/pmol enzyme],Activity [3] [pmol/sec/pmol enzyme],Activity [4] [pmol/sec/pmol enzyme],Activity [5] [pmol/sec/pmol enzyme],Activity [6] [pmol/sec/pmol enzyme],Activity [7] [pmol/sec/pmol enzyme],Activity [8] [pmol/sec/pmol enzyme],"kcat ([2]; 0.5 mM UDP-glucose, 25 C, pH 7.5, DMSO reagent blank as control) [s⁻¹]",increase in activity over bx9 w/t protein [7]
C[C@H]1C(O)N(c2cc(C(F)(F)F)ccn2)C(=O)N1C (stereo partly drawn) [XXIV],1.462,0.001,0.982,1.358,0.816,1.154,0.528,0.908,,
CC1CC(O)N(c2ncc(C(F)(F)F)s2)C1=O (stereo not drawn) [XVI],0.687,,0.359,,,,0.073,0.285,,
C[C@@H]1C(O)N(c2cc(C(C)(C)C)on2)C(=O)N1C (stereo partly drawn) [VII],0.049,0.000,0.087,,,,,0.042,,
Cc1cnc(N2C(=O)N(C)C(C)C2O)cc1C(F)(F)F (stereo not drawn) [XX],0.698,−0.001,0.751,0.662,0.249,0.338,0.244,0.563,,
CN1CC(O)N(c2cc(C(C)(C)C)c(Cl)nn2)C1=O (stereo not drawn) [III],0.144,0.001,0.170,0.097,0.066,0.020,0.032,0.144,,
"COc1ccc2c(c1)OC(O)C(=O)N2O (stereo not drawn) [DIMBOA, 2,4-dihydroxy-7-methoxy-1,4-benzoxazin-3-one]",,,,,,,,,20.82,
C[C@H]1C(O)N(c2cc(C(C)(C)F)ncn2)C(=O)N1C (stereo partly drawn) [XIV],0.411,−0.001,,,0.196,,0.037,,,
CN1CC(O)N(c2cc(C(C)(C)C)ncn2)C1=O (stereo not drawn) [IV],0.079,0.000,0.145,0.053,0.023,0.008,0.019,0.099,,
C[C@H]1C(=O)N(c2noc(C(C)(C)C)c2C#N)C(O)[C@@H]1C (stereo partly drawn) [XXIII],0.119,−0.003,0.089,0.072,0.021,0.034,0.014,0.067,,
C[C@@H]1C(O)N(c2cc(C(C)(C)C)on2)C(=O)[C@@H]1C (stereo partly drawn) [VIII],0.145,−0.002,0.124,0.077,0.017,0.016,0.008,0.061,,
CON1C(=O)N(c2cc(C(F)(F)F)c(C)cn2)C(O)[C@@H]1C (stereo partly drawn) [XV],,,,1.391,1.641,1.711,0.833,1.530,,
CSc1nnc(C(C)(C)C)c(=O)n1N [metribuzin],,,,,,,,,,1.3-1.5 ×
COC1=C(C)C(O)N(c2cc(C(C)(C)C)ncn2)C1=O (stereo not drawn) [X],0.137,−0.001,,0.102,,,,,,
CN1CC(O)N(c2cc(C(F)(F)F)n(C)n2)C1=O (stereo not drawn) [XII],,0.007,,,,,0.018,,,
